# Test results: patent publication US20240360151A1 (SANOFI, priority 2023, published 2024)
# Legend:
# NLRP3 inflammasome = biological target: T1, NLRP3 inflammasome (Homo sapiens, UniProt Q96P20); test: IL-1β secretion assay (NLRP3 IC50) in LPS-primed, nigericin-activated THP-1 cells, HTRF; format: cell-based; conditions: monocytic THP-1 cells; LPS 10 ng/mL 3 h priming, then compound + nigericin 10 μM 2 h; relative IC50, 10 concentrations, geometric mean
# T1 construct: endogenous in cells; host or cells: THP-1 monocytic cells
# Outline: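 IL-1β in supernatant read by HTRF after 2 h co-incubation of compound (0.1% DMSO, 10 concentrations, 1:3 series) with nigericin at 10 μM final, following 3 h LPS (10 ng/mL) priming of THP-1 monocytes at 37° C. Inhibition normalised to unactivated and no-compound controls; geometric-mean relative IC50 from 4-parameter logistic model.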
# [1] = system: NF-kB pathway (TNF-α secretion by THP-1 cells); test: TNF-α secretion assay in LPS-stimulated THP-1 cells, Lumit immunoassay; format: cell-based, human; conditions: Homo sapiens, THP-1, 3 h, monocytic THP-1 cells, LPS 10 ng/mL, relative IC50, 10 concentrations, geometric mean
# Outline: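 TNF-α release was quantified directly in the cell plate by Lumit immunoassay after a 3-h, 10 ng/mL LPS trigger of compound-treated THP-1 cells (RPMI, 5% FBS). Percent inhibition versus no-compound and unstimulated controls fed a 4-parameter logistic fit over 10 concentrations, giving geometric-mean relative IC50.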
# T1 sequence (Q96P20 whole entry): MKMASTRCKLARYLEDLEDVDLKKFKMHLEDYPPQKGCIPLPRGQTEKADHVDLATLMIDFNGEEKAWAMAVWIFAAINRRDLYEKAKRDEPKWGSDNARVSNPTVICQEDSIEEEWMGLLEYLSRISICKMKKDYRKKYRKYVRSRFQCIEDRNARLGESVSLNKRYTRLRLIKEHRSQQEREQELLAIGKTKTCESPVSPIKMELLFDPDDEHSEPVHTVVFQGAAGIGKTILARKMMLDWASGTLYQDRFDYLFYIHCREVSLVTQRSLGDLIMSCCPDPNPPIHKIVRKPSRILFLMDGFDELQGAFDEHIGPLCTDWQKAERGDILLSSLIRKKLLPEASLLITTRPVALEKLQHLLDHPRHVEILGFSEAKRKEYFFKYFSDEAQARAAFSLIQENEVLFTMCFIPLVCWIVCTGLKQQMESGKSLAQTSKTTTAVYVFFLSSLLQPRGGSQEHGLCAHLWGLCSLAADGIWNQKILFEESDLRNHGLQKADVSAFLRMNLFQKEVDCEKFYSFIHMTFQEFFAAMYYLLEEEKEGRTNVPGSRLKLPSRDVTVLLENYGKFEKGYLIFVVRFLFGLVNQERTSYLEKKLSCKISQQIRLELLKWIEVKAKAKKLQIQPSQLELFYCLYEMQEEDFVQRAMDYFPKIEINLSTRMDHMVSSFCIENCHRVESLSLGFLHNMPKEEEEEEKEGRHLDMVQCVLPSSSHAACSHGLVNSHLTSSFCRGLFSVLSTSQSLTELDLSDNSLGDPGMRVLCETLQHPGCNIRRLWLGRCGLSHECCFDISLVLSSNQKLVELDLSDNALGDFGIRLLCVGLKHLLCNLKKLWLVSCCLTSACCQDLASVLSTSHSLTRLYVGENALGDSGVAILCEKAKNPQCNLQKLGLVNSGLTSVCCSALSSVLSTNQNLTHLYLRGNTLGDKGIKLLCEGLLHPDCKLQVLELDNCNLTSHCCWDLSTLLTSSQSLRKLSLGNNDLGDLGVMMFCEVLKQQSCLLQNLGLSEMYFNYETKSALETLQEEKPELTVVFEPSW
Structure (SMILES),IC50 (NLRP3 inflammasome) [nM],IC50 [1] [nM]
"Cc1cc(N2CCO[C@@H]3CCN(C)C[C@@H]32)nnc1-c1ccc(Cl)cc1O [Example 379, 2-[6-[(4aS,8aR)-6-methyl-3,4a,5,7,8,8a-hexahydro-2H-pyrido[4,3-b][1,4]oxazin-4-yl]-4-methyl-pyridazin-3-yl]-5-chloro-phenol]",1,> 10000
"CC(=O)N1CC[C@H]2OCCN(c3cc(C(F)F)c(-c4ccc(C)cc4O)nn3)[C@H]2C1 [Example 387, 1-[(4aS,8aR)-4-[5-(difluoromethyl)-6-(2-hydroxy-4-methyl-phenyl)pyridazin-3-yl]-3,4a,5,7,8,8a-hexahydro-2H-pyrido[4,3-b][1,4]oxazin-6-yl]ethanone]",31,> 10000
"Cc1cc(C(F)(F)F)cc(O)c1-c1ccc(N2CC[C@H]3CCN(C)C[C@H]32)nn1 [Example 391, 2-[6-[(3aR,7aS)-6-methyl-3,3a,4,5,7,7a-hexahydro-2H-pyrrolo[2,3-c]pyridin-1-yl]pyridazin-3-yl]-3-methyl-5-(trifluoromethyl)phenol]",31,> 10000
"CC(=O)N1CC[C@H]2OCCN(c3nnc(-c4c(C)cc(C)cc4O)cc3C(F)F)[C@H]2C1 [Example 405, 1-[(4aS,8aR)-4-[4-(difluoromethyl)-6-(2-hydroxy-4,6-dimethyl-phenyl)pyridazin-3-yl]-3,4a,5,7,8,8a-hexahydro-2H-pyrido[4,3-b][1,4]oxazin-6-yl]ethanone]",89,> 10000
"CCc1cccc(O)c1-c1ccc(N2CCO[C@@H]3CCN(CC)C[C@@H]32)nn1 [Example 408, 2-[6-[(4aS,8aR)-6-ethyl-3,4a,5,7,8,8a-hexahydro-2H-pyrido[4,3-b][1,4]oxazin-4-yl]pyridazin-3-yl]-3-ethyl-phenol]",2,> 10000
"CCN1CC[C@H]2OCCN(c3ccc(-c4c(C)cccc4O)nn3)[C@H]2C1 [Example 412, 2-[6-[(4aS,8aR)-6-ethyl-3,4a,5,7,8,8a-hexahydro-2H-pyrido[4,3-b][1,4]oxazin-4-yl]pyridazin-3-yl]-3-methyl-phenol]",18,> 10000
"CCc1cccc(O)c1-c1cc(C(F)F)c(N2CCO[C@@H]3CCN(C)C[C@@H]32)nn1 [Example 425, 2-[6-[(4aS,8aR)-6-methyl-3,4a,5,7,8,8a-hexahydro-2H-pyrido[4,3-b][1,4]oxazin-4-yl]-5-(difluoromethyl)pyridazin-3-yl]-3-ethyl-phenol]",55,> 10000
"CC(=O)N1CC[C@H]2OCCN(c3cc(C)c(-c4ccc(C)cc4O)nn3)[C@H]2C1 [Example 431, 1-[(4aS,8aR)-4-[6-(2-hydroxy-4-methyl-phenyl)-5-methyl-pyridazin-3-yl]-3,4a,5,7,8,8a-hexahydro-2H-pyrido[4,3-b][1,4]oxazin-6-yl]ethanone]",62,> 10000
"CCc1cccc(O)c1-c1ccc(N2CCO[C@@H]3CCN(C(C)C)C[C@@H]32)nn1 [Example 432, 2-[6-[(4aS,8aR)-6-isopropyl-3,4a,5,7,8,8a-hexahydro-2H-pyrido[4,3-b][1,4]oxazin-4-yl]pyridazin-3-yl]-3-ethyl-phenol]",5,> 10000
"Cc1cc(C)c(-c2ccc(N3CCO[C@@H]4CCN(C(C)C)C[C@@H]43)nn2)c(O)c1 [Example 433, 2-[6-[(4aS,8aR)-6-isopropyl-3,4a,5,7,8,8a-hexahydro-2H-pyrido[4,3-b][1,4]oxazin-4-yl]pyridazin-3-yl]-3,5-dimethyl-phenol]",2,> 10000
"CCN1CC[C@H]2OCCN(c3cc(C)c(-c4ccc(C(F)(F)F)cc4O)nn3)[C@H]2C1 [Example 436, 2-[6-[(4aS,8aR)-6-ethyl-3,4a,5,7,8,8a-hexahydro-2H-pyrido[4,3-b][1,4]oxazin-4-yl]-4-methyl-pyridazin-3-yl]-5-(trifluoromethyl)phenol]",2,> 10000
"CCN1CC[C@H]2OCCN(c3cc(C)c(-c4ccc(Cl)cc4O)nn3)[C@H]2C1 [Example 437, 2-[6-[(4aS,8aR)-6-ethyl-3,4a,5,7,8,8a-hexahydro-2H-pyrido[4,3-b][1,4]oxazin-4-yl]-4-methyl-pyridazin-3-yl]-5-chloro-phenol]",1,> 10000
"CCc1cc(N2CCO[C@@H]3CCN(C)C[C@@H]32)nnc1-c1ccc(C(F)(F)F)cc1O [Example 443, 2-[6-[(4aS,8aR)-6-methyl-3,4a,5,7,8,8a-hexahydro-2H-pyrido[4,3-b][1,4]oxazin-4-yl]-4-ethyl-pyridazin-3-yl]-5-(trifluoromethyl)phenol]",10,> 10000

# Next, values leading:
IC50 (NLRP3 inflammasome) [nM],IC50 [1] [nM],Structure (SMILES)
4,> 10000,"CCc1cc(C(F)(F)F)cc(O)c1-c1ccc(N2CCO[C@@H]3CCN(C(C)=O)C[C@@H]32)nn1 [Example 380, 1-[(4aS,8aR)-4-[6-[2-ethyl-6-hydroxy-4-(trifluoromethyl)phenyl]pyridazin-3-yl]-3,4a,5,7,8,8a-hexahydro-2H-pyrido[4,3-b][1,4]oxazin-6-yl]ethanone]"
3,> 10000,"CCc1cc(Cl)cc(O)c1-c1ccc(N2CCO[C@@H]3CCN(C(C)=O)C[C@@H]32)nn1 [Example 381, 1-[(4aS,8aR)-4-[6-(4-chloro-2-ethyl-6-hydroxy-phenyl)pyridazin-3-yl]-3,4a,5,7,8,8a-hexahydro-2H-pyrido[4,3-b][1,4]oxazin-6-yl]ethanone]"
12,> 10000,"Oc1cc(C(F)(F)F)ccc1-c1nnc(N2CCO[C@@H]3CCNC[C@@H]32)cc1C(F)F [Example 382, 2-[6-[(4aS,8aR)-2,3,4a,5,6,7,8,8a-octahydropyrido[4,3-b][1,4]oxazin-4-yl]-4-(difluoromethyl)pyridazin-3-yl]-5-(trifluoromethyl)phenol]"
19,> 10000,"CC(=O)N1CC[C@H]2OCCN(c3cc(C(F)F)c(-c4ccc(C(F)(F)F)cc4O)nn3)[C@H]2C1 [Example 386, 1-[(4aS,8aR)-4-[5-(difluoromethyl)-6-[2-hydroxy-4-(trifluoromethyl)phenyl]pyridazin-3-yl]-3,4a,5,7,8,8a-hexahydro-2H-pyrido[4,3-b][1,4]oxazin-6-yl]ethanone]"
33,> 10000,"Cc1cc(C)c(-c2ccc(N3C[C@@H](CO)O[C@@H](C)C3)nn2)c(O)c1 [Example 390, 2-[6-[(2S,6S)-2-(hydroxymethyl)-6-methyl-morpholin-4-yl]pyridazin-3-yl]-3,5-dimethyl-phenol]"
1,> 10000,"Cc1cc(C(F)(F)F)cc(O)c1-c1ccc(N2CC[C@@H]3CCN(C)C[C@@H]32)nn1 [Example 392, 2-[6-[(3aS,7aR)-6-methyl-3,3a,4,5,7,7a-hexahydro-2H-pyrrolo[2,3-c]pyridin-1-yl]pyridazin-3-yl]-3-methyl-5-(trifluoromethyl)phenol]"
93,> 10000,"[O-][S+]1CCN(c2ccc(-c3c(O)cc(Cl)cc3Cl)nn2)CC1 [Example 400, 3,5-dichloro-2-[6-(1-oxo-1,4-thiazinan-4-yl)pyridazin-3-yl]phenol]"
13,> 10000,"CCc1cc(C(F)(F)F)cc(O)c1-c1ccc(N2CCO[C@H](CO)C2)nn1 [Example 418, 3-ethyl-2-[6-[(2S)-2-(hydroxymethyl)morpholin-4-yl]pyridazin-3-yl]-5-(trifluoromethyl)phenol]"
< 0.3,> 10000,"Cc1cc(N2CCO[C@@H]3CCN(C)C[C@@H]32)nnc1-c1ccc(C(F)(F)F)cc1O [Example 430, 2-[6-[(4aS,8aR)-6-methyl-3,4a,5,7,8,8a-hexahydro-2H-pyrido[4,3-b][1,4]oxazin-4-yl]-4-methyl-pyridazin-3-yl]-5-(trifluoromethyl)phenol]"
42,> 10000,"Cc1cc(C)c(-c2cc(C)c(N3CCO[C@@H]4CCN(C)C[C@@H]43)nn2)c(O)c1 [Example 434, 2-[6-[(4aS,8aR)-6-methyl-3,4a,5,7,8,8a-hexahydro-2H-pyrido[4,3-b][1,4]oxazin-4-yl]-5-methyl-pyridazin-3-yl]-3,5-dimethyl-phenol]"
3,> 10000,"CCN1CC[C@H]2OCCN(c3cc(C)c(-c4ccc(C)cc4O)nn3)[C@H]2C1 [Example 435, 2-[6-[(4aS,8aR)-6-ethyl-3,4a,5,7,8,8a-hexahydro-2H-pyrido[4,3-b][1,4]oxazin-4-yl]-4-methyl-pyridazin-3-yl]-5-methyl-phenol]"
